Test results as given in article PMC9739792, “Screening and Molecular Mechanisms of Novel ACE-Inhibitory Peptides from Gracilariopsis lemaneiformis” (International Journal of Molecular Sciences, 2022).
Where no end group is shown, it is not given here.

Experiments:
[1] = molecular target: T1, ACE from rabbit lung (Oryctolagus cuniculus, UniProt P12822); assay: ACE-inhibitory activity assay (HHL substrate, hippuric acid by RP-HPLC); assay type: biochemical; conditions: HHL 5 mM, pH 8.3, 37 °C, 45 min; for inhibition at 1000 µg/mL: synthetic peptides dissolved at 1 mg/mL; for IC50: synthetic peptides, mean ± SD, SD, read-out: IC50 of ACE inhibition
T1 construct: ACE from rabbit lung (EC3.4.15.1); purchased Sigma-Aldrich; host or cells: rabbit lung tissue
T1 sequence (P12822 34-1310): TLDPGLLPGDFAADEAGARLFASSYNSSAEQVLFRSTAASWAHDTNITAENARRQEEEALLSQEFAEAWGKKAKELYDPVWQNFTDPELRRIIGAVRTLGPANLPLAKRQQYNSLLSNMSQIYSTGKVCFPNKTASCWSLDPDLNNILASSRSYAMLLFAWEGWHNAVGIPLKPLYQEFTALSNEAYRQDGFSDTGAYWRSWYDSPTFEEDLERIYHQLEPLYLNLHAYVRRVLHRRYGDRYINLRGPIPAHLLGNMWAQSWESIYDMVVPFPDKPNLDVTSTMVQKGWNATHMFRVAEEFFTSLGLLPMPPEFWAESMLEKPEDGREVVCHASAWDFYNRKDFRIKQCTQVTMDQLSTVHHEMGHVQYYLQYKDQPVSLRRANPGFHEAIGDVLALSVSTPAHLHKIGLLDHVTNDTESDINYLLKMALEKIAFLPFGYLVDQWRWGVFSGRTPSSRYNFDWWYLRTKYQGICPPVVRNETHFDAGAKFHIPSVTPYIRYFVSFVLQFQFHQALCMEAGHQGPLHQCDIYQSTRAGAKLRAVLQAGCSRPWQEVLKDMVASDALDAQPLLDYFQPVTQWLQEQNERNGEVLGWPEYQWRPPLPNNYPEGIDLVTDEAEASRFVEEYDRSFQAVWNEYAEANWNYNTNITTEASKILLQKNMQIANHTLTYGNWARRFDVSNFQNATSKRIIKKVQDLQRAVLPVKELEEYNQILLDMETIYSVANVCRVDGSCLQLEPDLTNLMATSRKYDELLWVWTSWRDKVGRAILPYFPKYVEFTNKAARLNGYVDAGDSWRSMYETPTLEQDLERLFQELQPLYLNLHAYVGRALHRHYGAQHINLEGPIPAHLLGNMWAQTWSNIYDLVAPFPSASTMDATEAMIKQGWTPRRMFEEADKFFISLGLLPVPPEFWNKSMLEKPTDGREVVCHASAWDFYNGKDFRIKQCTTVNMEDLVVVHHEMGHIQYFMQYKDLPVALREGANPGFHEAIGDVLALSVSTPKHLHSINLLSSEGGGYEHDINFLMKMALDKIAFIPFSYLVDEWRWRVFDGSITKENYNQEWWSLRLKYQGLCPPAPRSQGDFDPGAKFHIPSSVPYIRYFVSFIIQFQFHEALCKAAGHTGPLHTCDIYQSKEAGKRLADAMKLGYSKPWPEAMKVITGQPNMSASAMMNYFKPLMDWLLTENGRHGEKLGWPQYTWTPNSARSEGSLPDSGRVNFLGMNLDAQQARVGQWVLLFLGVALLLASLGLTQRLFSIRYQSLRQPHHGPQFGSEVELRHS
Experimental: The ACE-inhibitory activity was determined according to the method of Ma et al., with some modification. Briefly, 50 µL of sample in 0.1 mol/L borate buffer (pH 8.3, containing 0.3 M NaCl) was mixed with 150 µL of 5 mM hippuryl-l-histidyl-l-leucine (HHL) and incubated at 37 °C for 10 min. Then, the reaction was initiated by adding 50 µL of ACE solution (50 mU/mL) and incubating at 37 °C for 45 min. The reaction was then stopped by the addition of 250 µL of 1 M HCl. The formation of hippuric acid (HA) was measured by RP-HPLC (Waters, Milford, MA, USA) at 220 nm.
The screened and predicted potential ACE-inhibitory peptides were chemically synthesized at Genscript biotech corporation (Nanjing, China) using the Fmoc solid-phase method. […] Synthetic peptides were dissolved at 1 mg/mL for validation of their ACE-inhibitory activity.

[2] = test system: spontaneously hypertensive rats (SHR); assay: Antihypertensive effect of GLP in SHR after oral administration; assay type: in vivo, rat; conditions: captopril 30 mg/kg·bw
Experimental: SHRs (male, 10 weeks, 220 ± 20 g body weight) were supplied by Vital River Laboratory Animal Technology Co., Ltd. (Beijing, China). […] Three doses of GLP (1200, 1500, 1800 mg/kg of body weight, BW) was orally administered to SHRs. The blank group (saline) and Captopril (30 mg/kg·bw) group were used as negative and positive control, respectively. BP-98A blood pressure monitor (Softron Biotechnology, Beijing, China) was used to determine blood pressure by the tail-cuff method. […] Animals were treated in accordance with the guidelines of the National Institutes of Health and Use of Laboratory Animals.

| Compound | inhibition at 1000 µg/mL [1] [%] | IC50 [1] [µM] | time course of antihypertensive effect compared with GLP [2] |
| --- | --- | --- | --- |
| RLVPVPY [RLVPVPY] | 87.7 | 9.18 ± 0.42 |  |
| SFYYGK [SFYYGK] | 94.2 | 6.45 ± 0.22 |  |
| C[C@H](CS)C(=O)N1CCC[C@H]1C(=O)O [captopril] |  |  | reached its maximum effect faster than GLP |
